ChEMBL document CHEMBL4376895
The source made the active and inactive calls. Positions of bridges follow the written chain, without caps; N, C: chain ends. Residues, ends and D or L forms follow the SMILES beside them.

What was measured:
Type in all cases: cell-based
[1] = biological target: Neuronal acetylcholine receptor; alpha4/beta4 (Rattus norvegicus) (UniProt P09483+P12392); assay: Antagonist activity at rat alpha4beta4 nAChR expressed in Xenopus laevis oocytes assessed as inhibition of Ach-induced response up to 10 uM at -70 mV holding potential by two electrode voltage-clamp assay
[2] = biological target: Neuronal acetylcholine receptor; alpha2/beta4 (Rattus norvegicus) (UniProt P12389+P12392); assay: Antagonist activity at rat alpha2beta4 nAChR expressed in Xenopus laevis oocytes assessed as inhibition of Ach-induced response up to 10 uM at -70 mV holding potential by two electrode voltage-clamp assay
[3] = biological target: Neuronal acetylcholine receptor; alpha4/beta2 (Rattus norvegicus) (UniProt P09483+P12390); assay: Antagonist activity at rat alpha4beta2 nAChR expressed in Xenopus laevis oocytes assessed as inhibition of Ach-induced response up to 10 uM at -70 mV holding potential by two electrode voltage-clamp assay

Measured: inhibition

CC[C@H](C)[C@H](NC(=O)[C@H](CCCNC(=N)N)NC(=O)[C@H](CCCNC(=N)N)NC(=O)[C@@H]1CSSC[C@H](NC(=O)[C@H](Cc2ccc(O)cc2)NC(=O)[C@H](CCCNC(=N)N)NC(=O)CNC(=O)[C@H](CO)NC(=O)[C@H](CO)NC(=O)[C@H](CCCNC(=N)N)NC(=O)[C@H](C)NC(=O)[C@@H](N)[C@@H](C)O)C(=O)N[C@@H](CCCNC(=N)N)C(=O)N[C@@H](CO)C(=O)N2CCC[C@H]2C(=O)N[C@@H](Cc2ccc(O)cc2)C(=O)N[C@@H](CC(=O)O)C(=O)N[C@@H](CCCNC(=N)N)C(=O)N[C@@H](CCCNC(=N)N)C(=O)N[C@@H](CCCNC(=N)N)C(=O)N[C@@H](CCCNC(=N)N)C(=O)N[C@@H](Cc2ccc(O)cc2)C(=O)N1)C(=O)N[C@H](C(=O)N[C@@H](CC(=O)O)C(=O)N[C@@H](C)C(=O)N[C@@H](C)C(=O)N[C@H](C(=O)O)C(C)C)[C@@H](C)O
inactive: all assays above

CC[C@H](C)[C@H](NC(=O)[C@H](CCCNC(=N)N)NC(=O)[C@H](CCCNC(=N)N)NC(=O)[C@@H]1CSSC[C@H](NC(=O)[C@H](Cc2ccc(O)cc2)NC(=O)[C@H](CCCNC(=N)N)NC(=O)CNC(=O)[C@H](CO)NC(=O)[C@H](CO)NC(=O)[C@H](CCCNC(=N)N)NC(=O)[C@H](CO)NC(=O)[C@@H](N)[C@@H](C)O)C(=O)N[C@@H](CCCNC(=N)N)C(=O)N[C@@H](CO)C(=O)N2CCC[C@H]2C(=O)N[C@@H](Cc2ccc(O)cc2)C(=O)N[C@@H](CC(=O)O)C(=O)N[C@@H](CCCNC(=N)N)C(=O)N[C@@H](CCCNC(=N)N)C(=O)N[C@@H](CCCNC(=N)N)C(=O)N[C@@H](CCCNC(=N)N)C(=O)N[C@@H](Cc2ccc(O)cc2)C(=O)N1)C(=O)N[C@H](C(=O)N[C@@H](CC(=O)O)C(=O)N[C@@H](C)C(=O)N[C@@H](CO)C(=O)N[C@H](C(=O)O)C(C)C)[C@@H](C)O
inactive: all assays above

CC[C@H](C)[C@H](NC(=O)[C@H](CCCNC(=N)N)NC(=O)[C@H](CCCNC(=N)N)NC(=O)[C@H](C)NC(=O)[C@H](Cc1ccc(O)cc1)NC(=O)[C@H](CCCNC(=N)N)NC(=O)[C@H](CCCNC(=N)N)NC(=O)[C@H](CCCNC(=N)N)NC(=O)[C@H](CCCNC(=N)N)NC(=O)[C@H](CC(=O)O)NC(=O)[C@H](Cc1ccc(O)cc1)NC(=O)[C@@H]1CCCN1C(=O)[C@H](CO)NC(=O)[C@H](CCCNC(=N)N)NC(=O)[C@@H]1CSSC[C@H](NC(=O)[C@@H](N)[C@@H](C)O)C(=O)N[C@@H](CCCNC(=N)N)C(=O)N[C@@H](CO)C(=O)N[C@@H](CO)C(=O)NCC(=O)N[C@@H](CCCNC(=N)N)C(=O)N[C@@H](Cc2ccc(O)cc2)C(=O)N1)C(=O)N[C@H](C(=O)N[C@@H](CC(=O)O)C(=O)N[C@@H](C)C(=O)N[C@@H](C)C(=O)N[C@H](C(=O)O)C(C)C)[C@@H](C)O
inactive: all assays above

CC[C@H](C)[C@H](NC(=O)[C@H](CCCNC(=N)N)NC(=O)[C@H](CCCNC(=N)N)NC(=O)[C@H](CO)NC(=O)[C@H](Cc1ccc(O)cc1)NC(=O)[C@H](CCCNC(=N)N)NC(=O)[C@H](CCCNC(=N)N)NC(=O)[C@H](CCCNC(=N)N)NC(=O)[C@H](CCCNC(=N)N)NC(=O)[C@H](CC(=O)O)NC(=O)[C@H](Cc1ccc(O)cc1)NC(=O)[C@@H]1CCCN1C(=O)[C@H](CO)NC(=O)[C@H](CCCNC(=N)N)NC(=O)[C@@H]1CSSC[C@H](NC(=O)[C@@H](N)[C@@H](C)O)C(=O)N[C@@H](CCCNC(=N)N)C(=O)N[C@@H](CO)C(=O)N[C@@H](CO)C(=O)NCC(=O)N[C@@H](CCCNC(=N)N)C(=O)N[C@@H](Cc2ccc(O)cc2)C(=O)N1)C(=O)N[C@H](C(=O)N[C@@H](CC(=O)O)C(=O)N[C@@H](C)C(=O)N[C@@H](CO)C(=O)N[C@H](C(=O)O)C(C)C)[C@@H](C)O
inactive: all assays above

CC[C@H](C)[C@@H]1NC(=O)[C@H](CCCNC(=N)N)NC(=O)[C@H](CCCNC(=N)N)NC(=O)[C@@H](NC(=O)[C@H](Cc2ccc(O)cc2)NC(=O)[C@H](CCCNC(=N)N)NC(=O)[C@H](CCCNC(=N)N)NC(=O)[C@H](CCCNC(=N)N)NC(=O)[C@H](CCCNC(=N)N)NC(=O)[C@H](CC(=O)O)NC(=O)[C@H](Cc2ccc(O)cc2)NC(=O)[C@@H]2CCCN2C(=O)[C@H](CO)NC(=O)[C@H](CCCNC(=N)N)NC(=O)[C@H](C)NC(=O)[C@H](Cc2ccc(O)cc2)NC(=O)[C@H](CCCNC(=N)N)NC(=O)CNC(=O)[C@H](CO)NC(=O)[C@H](CO)NC(=O)[C@H](CCCNC(=N)N)NC(=O)[C@H](C)NC(=O)[C@@H](N)[C@@H](C)O)CSSC[C@@H](C(=O)N[C@H](C(=O)O)C(C)C)NC(=O)[C@H](C)NC(=O)[C@H](CC(=O)O)NC(=O)[C@H]([C@@H](C)O)NC1=O (H-TARSSGRYARSPYDRRRRYCRRITDACV-OH; disulfide 20-27)
inactive: all assays above

CC[C@H](C)[C@@H]1NC(=O)[C@H](CCCNC(=N)N)NC(=O)[C@H](CCCNC(=N)N)NC(=O)[C@H](C)NC(=O)[C@H](Cc2ccc(O)cc2)NC(=O)[C@H](CCCNC(=N)N)NC(=O)[C@H](CCCNC(=N)N)NC(=O)[C@H](CCCNC(=N)N)NC(=O)[C@H](CCCNC(=N)N)NC(=O)[C@H](CC(=O)O)NC(=O)[C@H](Cc2ccc(O)cc2)NC(=O)[C@@H]2CCCN2C(=O)[C@H](CO)NC(=O)[C@H](CCCNC(=N)N)NC(=O)[C@H](C)NC(=O)[C@H](Cc2ccc(O)cc2)NC(=O)[C@H](CCCNC(=N)N)NC(=O)CNC(=O)[C@H](CO)NC(=O)[C@H](CO)NC(=O)[C@H](CCCNC(=N)N)NC(=O)[C@@H](NC(=O)[C@@H](N)[C@@H](C)O)CSSC[C@@H](C(=O)N[C@H](C(=O)O)C(C)C)NC(=O)[C@H](C)NC(=O)[C@H](CC(=O)O)NC(=O)[C@H]([C@@H](C)O)NC1=O (H-TCRSSGRYARSPYDRRRRYARRITDACV-OH; disulfide 2-27)
inactive: all assays above

CC[C@H](C)[C@@H]1NC(=O)[C@H](CCCNC(=N)N)NC(=O)[C@H](CCCNC(=N)N)NC(=O)[C@H](CO)NC(=O)[C@H](Cc2ccc(O)cc2)NC(=O)[C@H](CCCNC(=N)N)NC(=O)[C@H](CCCNC(=N)N)NC(=O)[C@H](CCCNC(=N)N)NC(=O)[C@H](CCCNC(=N)N)NC(=O)[C@H](CC(=O)O)NC(=O)[C@H](Cc2ccc(O)cc2)NC(=O)[C@@H]2CCCN2C(=O)[C@H](CO)NC(=O)[C@H](CCCNC(=N)N)NC(=O)[C@H](CO)NC(=O)[C@H](Cc2ccc(O)cc2)NC(=O)[C@H](CCCNC(=N)N)NC(=O)CNC(=O)[C@H](CO)NC(=O)[C@H](CO)NC(=O)[C@H](CCCNC(=N)N)NC(=O)[C@@H](NC(=O)[C@@H](N)[C@@H](C)O)CSSC[C@@H](C(=O)N[C@H](C(=O)O)C(C)C)NC(=O)[C@H](C)NC(=O)[C@H](CC(=O)O)NC(=O)[C@H]([C@@H](C)O)NC1=O (H-TCRSSGRYSRSPYDRRRRYSRRITDACV-OH; disulfide 2-27)
inactive: all assays above
